Drawing on patent US5712417A, “Inhibitors of retroviral proteases” (Abbott Laboratories, priority 1989, dated 1998), this text covers IC50 for 20 compounds.

Counter-ions that a name gives are not always drawn.

One experiment has as its target T1, HIV protease (Human immunodeficiency virus type 1 group M subtype B, UniProt P04585).
T1 construct: HIV protease consists of 99 amino acids and is evidently split off by itself from the pol polyprotein
In words: Inhibition of HIV protease (cleavage of H-Ser-Phe-Asn-Phe-Opr-Gln-Ile-OH, HPLC).
Settings: not given
It counts as biochemical. The method in brief: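 Substrate H-Ser-Phe-Asn-Phe-Opr-Gln-Ile-OH in MGTE buffer (MES, glycerol, Triton X-100, PMSF, pH 6) preincubated with inhibitor at 37 °C for 5-10 min, then reacted with protease at 35 °C for 2 h. RP18 HPLC at 215 nm; tetrapeptide fraction gives cleavage rate, IC50 where rate is halved.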
For orientation: IC50 means the concentration at which inhibition is half-maximal. On to `CC(C)[C@H](NC(=O)[C@H](Cc1ccccc1)NC(=O)[C@H](O)[C@@H](O)[C@H](O)[C@H](O)CO)C(=O)N[C@@H](Cc1ccccc1)[C@@H](O)[C@H](O)[C@H](Cc1ccccc1)NC(=O)[C@@H](NC(=O)[C@H](Cc1ccccc1)NC(=O)[C@H](O)[C@@H](O)[C@H](O)[C@H](O)CO)C(C)C` [Example 110, N,N'-bis-<D-Gluconyl-L-phenylalanyl-L-valyl>-2S,5S-diamino-1,6-diphenylhexane-3R,4R-diol], for which 1 nM corresponded to half-maximal inhibition (IC50).

Staying with this experiment, now noted: inhibitor concentration at which the cleavage rate is halved; Ex. 99; read-out: IC50.
For `CC(C)[C@H](NC(=O)[C@@H](CC(=O)N1CCC(N)CC1)Cc1ccccc1)C(=O)N[C@@H](Cc1ccccc1)[C@@H](O)[C@H](O)[C@H](Cc1ccccc1)NC(=O)[C@@H](NC(=O)[C@@H](CC(=O)N1CCC(N)CC1)Cc1ccccc1)C(C)C` [Example 99, N,N'-bis-<3-(4-Amino-1-piperidylcarbonyl-2R-benzyl-propionyl-L-valyl>-2S,5S-diamino-1,6-diphenylhexane-3R,4R-dioldihydrochloride], the half-inhibitory concentration (IC50) is 15 nM.

The same experiment, now with this note: inhibitor concentration at which the cleavage rate is halved; pH 6, 2 hours; read-out: IC50.
Turning to `CC(C)(C)[C@H](NC(=O)[C@H](Cc1ccccc1)CS(=O)(=O)C(C)(C)C)C(=O)N[C@@H](Cc1ccccc1)[C@@H](O)[C@H](O)[C@H](Cc1ccccc1)NC(=O)[C@@H](NC(=O)[C@H](Cc1ccccc1)CS(=O)(=O)C(C)(C)C)C(C)(C)C` [Example 91, N,N'-bis-<(2S-(1,1-Dimethylethylsulfonylmethyl)-3-phenyl-propionyl)-L-tert.-butylglycyl>-2S, 5S-diamino-1,6-diphenylhexane-3R, 4R-diol], the half-inhibitory concentration (IC50) stood at 1.3 nM.

With `CC(C)[C@H](NC(=O)[C@@H](O)CCc1ccccc1)C(=O)N[C@@H](Cc1ccccc1)[C@H](O)[C@@H](O)[C@H](Cc1ccccc1)NC(=O)[C@@H](NC(=O)[C@@H](O)CCc1ccccc1)C(C)C` [Example 94, N,N'-bis-<(2S-Hydroxy-4-phenylbutyryl)-L-valyl>-2S,5S-diamino-1,6-diphenylhexane-3S,4S-diol], the IC50 was 6.5 nM.

With `CC(C)[C@H](NC(=O)C(Cc1ccccc1)CS(=O)(=O)N1CCC(N)CC1)C(=O)N[C@@H](Cc1ccccc1)[C@@H](O)[C@H](O)[C@H](Cc1ccccc1)NC(=O)[C@@H](NC(=O)C(Cc1ccccc1)CS(=O)(=O)N1CCC(N)CC1)C(C)C` (stereo partly drawn) [Example 97, N,N'-bis-<3-(4-Amino-1-piperidylsulfonyl)-2-benzyl-propionyl-L-valyl>-2S,5S-diamino-1,6-diphenylhexane-3R,4R-diol], the IC50 came to 36 nM.

Take `CC(C)[C@H](NC(=O)C(Cc1ccccc1)CS(=O)(=O)N1CCC(NC(=O)OC(C)(C)C)CC1)C(=O)N[C@@H](Cc1ccccc1)[C@@H](O)[C@H](O)[C@H](Cc1ccccc1)NC(=O)[C@@H](NC(=O)C(Cc1ccccc1)CS(=O)(=O)N1CCC(NC(=O)OC(C)(C)C)CC1)C(C)C` (stereo partly drawn) [Example 98, N,N'-bis-<2-Benzyl-3-(4-tert.-butoxycarbonylamino-1-piperidylsulfonyl)-propionyl-L-valyl>-2S,5S-diamino-1,6-diphenylhexane-3R,4R-diol]: the IC50 worked out at 1000 nM.

Regarding `CC(C)[C@H](NC(=O)[C@@H](CC(=O)N1CCC(NC(=O)OC(C)(C)C)CC1)Cc1ccccc1)C(=O)N[C@@H](Cc1ccccc1)[C@@H](O)[C@H](O)[C@H](Cc1ccccc1)NC(=O)[C@@H](NC(=O)[C@@H](CC(=O)N1CCC(NC(=O)OC(C)(C)C)CC1)Cc1ccccc1)C(C)C` [Example 100, N,N'-bis-<2R-Benzyl-3-(4-tert.-butoxycarbonylamino-1-piperidylcarbonyl)-propionyl-n-valyl>-2S,5S-diamino-1,6-diphenylhexane-3R,4R-diol dihydrochloride], the IC50 is 400 nM.

As for `CC(C)[C@H](NC(=O)[C@@H](CC(=O)OC(C)(C)C)Cc1ccccc1)C(=O)N[C@@H](Cc1ccccc1)[C@@H](O)[C@H](O)[C@H](Cc1ccccc1)NC(=O)[C@@H](NC(=O)[C@@H](CC(=O)OC(C)(C)C)Cc1ccccc1)C(C)C` [Example 102, N,N'-bis-<(2R-Benzyl-3-tert.-butoxycarbonyl)-propionyl-L-valyl>-2S,5S-diamino-1,6-diphenylhexane-3R,4R-diol], the IC50 came out at 38 nM.

On to `CC(C)[C@H](NC(=O)[C@@H](CNC(=O)OC(C)(C)C)Cc1ccccc1)C(=O)N[C@@H](Cc1ccccc1)[C@@H](O)[C@H](O)[C@H](Cc1ccccc1)NC(=O)[C@@H](NC(=O)[C@@H](CNC(=O)OC(C)(C)C)Cc1ccccc1)C(C)C` [Example 106, N,N,-bis-<(2R-Benzyl-3-tert.-butoxycarbonylamino)-propionly-L-valyl>-2S,5S-diamino-1,6-diphenylhexane-3R,4R-diol], for which the IC50 was 85 nM.

Turning to `CC(C)[C@H](NC(=O)[C@H](Cc1ccccc1)OC1O[C@H]([C@H](O)CO)[C@H](O)[C@@H]1O)C(=O)N[C@@H](Cc1ccccc1)[C@@H](O)[C@H](O)[C@H](Cc1ccccc1)NC(=O)[C@@H](NC(=O)[C@H](Cc1ccccc1)OC1O[C@H]([C@H](O)CO)[C@H](O)[C@@H]1O)C(C)C` (stereo partly drawn) [Example 107, N,N'-bis-<O-(D-Mannofuranosyl)-2S-hydroxy-3-phenyl-propionyl-L-valyl>-2S,5S-diamino-1,6-diphenylhexane-3R,4R-diol], the IC50 stood at 8.5 nM.

As to `CC(C)[C@H](NC(=O)[C@@H](N)Cc1ccccc1)C(=O)N[C@@H](CCc1ccncc1)[C@@H](O)[C@H](O)[C@H](CCc1ccncc1)NC(=O)[C@@H](NC(=O)[C@@H](N)Cc1ccccc1)C(C)C` [Example 108, N,N'-bis-(L-Phenylalanyl-L-valyl)-3S,6S-diamino-1,8-di(4-pyridyl)-octane-,5R-diol tetrahydrochloride], the IC50 was 280 nM.

`CC(C)[C@H](NC(=O)[C@H](Cc1ccccc1)NC[C@@]1(O)OC[C@@H](O)[C@@H](O)[C@@H]1O)C(=O)N[C@@H](Cc1ccccc1)[C@H](O)[C@@H](O)[C@H](Cc1ccccc1)NC(=O)[C@@H](NC(=O)[C@H](Cc1ccccc1)NC[C@@]1(O)OC[C@@H](O)[C@@H](O)[C@@H]1O)C(C)C` [Example 109, N,N'-bis-<N-(β-D-1-Deoxyfructos-1-yl-L-phenylalanyl-L-valyl>-2S,5S-diamino-1,6-diphenylhexane-3S,4S-diol diacetate]: the IC50 stood at 5 nM.

On to `CC(C)[C@H](NC(=O)[C@@H](N)Cc1ccccc1)C(=O)NC[C@@H](O)[C@H](O)CNC(=O)[C@@H](NC(=O)[C@@H](N)Cc1ccccc1)C(C)C` [Example 113, N,N,-bis-<L-phenylalanyl-L-valyl>-1,4-diaminobutane-2R,3R-diol dihydrochloride], for which the IC50 turned out to be 40 nM.

In the case of `CC(C)[C@H](NC(=O)[C@H](CC1CCCCC1)NC(=O)OC(C)(C)C)C(=O)N[C@@H](Cc1ccccc1)[C@@H](O)[C@H](O)[C@H](Cc1ccccc1)NC(=O)[C@@H](NC(=O)[C@H](CC1CCCCC1)NC(=O)OC(C)(C)C)C(C)C` [Example 115, N,N'-bis-<tert.-Butyloxycarbonyl-L-cyclohexylalanyl-L-valyl>-2S,5S-diamino-1,6-diphenylhexane-3R,4R-diol], the half-inhibitory concentration (IC50) was 2200 nM.

As for `CC(C)[C@H](NC(=O)[C@@H](N)CC1CCCCC1)C(=O)N[C@@H](Cc1ccccc1)[C@@H](O)[C@H](O)[C@H](Cc1ccccc1)NC(=O)[C@@H](NC(=O)[C@@H](N)CC1CCCCC1)C(C)C` [Example 116, N,N'-bis-<L-Cyclohexylalanyl-L-valyl>-2S,5S-diamino-1,6-diphenylhexane-3R,4R-diol dihydrochloride], the IC50 worked out at 1.7 nM.

Turning to `CC(C)[C@H](NC(=O)[C@H](Cc1c[nH]c2ccccc12)NC(=O)OCc1ccccc1)C(=O)N[C@@H](Cc1ccccc1)[C@@H](O)[C@H](O)[C@H](Cc1ccccc1)NC(=O)[C@@H](NC(=O)[C@H](Cc1c[nH]c2ccccc12)NC(=O)OCc1ccccc1)C(C)C` [Example 117, N,N'-bis-<Benzyloxycarbonyl-L-tryptophyl-L-valyl>-2S,5S-diamino-1,6-diphenylhexane-3R,4R-diol], the IC50 came out at 19 nM.

On to `CC(C)[C@H](NC(=O)[C@@H]1Cc2ccccc2CN1C(=O)OCc1ccccc1)C(=O)N[C@@H](Cc1ccccc1)[C@@H](O)[C@H](O)[C@H](Cc1ccccc1)NC(=O)[C@@H](NC(=O)[C@@H]1Cc2ccccc2CN1C(=O)OCc1ccccc1)C(C)C` [Example 119, N,N'-bis-<Benzyloxycarbonyl-L-1,2,3,4-tetrahydro-isoquinolin-3-ylcarbonyl-L-valyl>-2S, 5S-diamino-1,6-diphenylhexane-3R, 4R-diol], for which the IC50 was 10000 nM.

For the compound `CC(C)[C@H](NC(=O)[C@@H]1Cc2ccccc2CN1)C(=O)N[C@@H](Cc1ccccc1)[C@@H](O)[C@H](O)[C@H](Cc1ccccc1)NC(=O)[C@@H](NC(=O)[C@@H]1Cc2ccccc2CN1)C(C)C` [Example 120, N,N'-bis-<L-1,2,3,4-Tetrahydroisoquinolin-3-ylcarbonyl-L-valyl>-2S,5S-diamino-1,6-diphenylhexane-3R,4R-diol diacetate], the IC50 was found to be 2 nM.

As to `CC(C)[C@H](NC(=O)C(Cc1ccccc1)C[S+]([O-])Cc1ccccc1)C(=O)N[C@@H](Cc1ccccc1)[C@@H](O)[C@H](O)[C@H](Cc1ccccc1)NC(=O)[C@@H](NC(=O)C(Cc1ccccc1)C[S+]([O-])Cc1ccccc1)C(C)C` (stereo partly drawn) [Example 121, N,N'-bis-<(2-(Benzylsulfinylmethyl)-3-phenylpropionyl)-L-valyl>-2S,5S-diamino-1,6-diphenylhexane-3R,4R-diol], the IC50 is 22 nM.

The same experiment, now with this note: read-out: IC50.
Regarding `CC(C)[C@H](NC(=O)[C@@H](N)Cc1c[nH]c2ccccc12)C(=O)N[C@@H](Cc1ccccc1)[C@@H](O)[C@H](O)[C@H](Cc1ccccc1)NC(=O)[C@@H](NC(=O)[C@@H](N)Cc1c[nH]c2ccccc12)C(C)C` [Example 118, N,N'-bis-<L-Tryptophyl-L-valyl>-2S,5S-diamino-1,6-diphenylhexane-3R,4R-dioldihydrochloride], the IC50 was 1.2 nM.
